Here are results for one compound from US9943499B2, “Lipase inhibitors for the treatment of pancreatitis and organ failure” (priority 2011, dated 2018).

Data set [1] deals with Male Wistar rats. Description: Intraductal infusion of glyceryl trilinoleate (GTL) pancreatitis. The data set is classed as in vivo. As to the method: Experiments were performed using a model, the technique of which is established and well described in rats (1, 2, 4, 7). This involves infusion of agents into the pancreatic duct to cause acute pancreatitis (1, 2, 4, 7). We will refer to this technique as “intraductal infusion”. We compared the severity of pancreatic damage and survival of rats after intraductal infusion of Glyceryl trilinoleate with and without the lipase inhibitor orlistat. In addition, we used a different lipase inhibitor-cetilistat (3, 6), and studied its efficacy in improving survival of rats in intraductal infusion pancreatitis induced with Glyceryl trilinoleate (GTL).
Male Wistar rats (250-350 gm), were anesthetized. Intraductal infusion of 0.1 ml (n=5) or 0.2 ml (n=5) of GTL (Sigma-Aldrich corporation) alone or GTL+orlistat (Caymen chemical, Ann Arbor, Mich.) (75 mg/ml, 0.1 ml n=5 or 0.2 ml n=5) or GTL+cetilistat (Jinan Wedo Industrial Co., Ltd., Jinan City, Shandong China) (25 mg/ml, 0.2 ml, n=10) was done as described previously (1, 2, 4, 7). All animals were given pain control (buprenorphine 200 mcg/kg BID), Cefazolin (100 mg/kg), and 10 cc saline subcutaneously BID as per the IACUC protocol. These were followed for survival.

The test system of data set [2] is pancreatic acini. Description: Acinar-adipocyte co-culture. In kind it is cell-based, mice. An excerpt: Harvesting cells: Primary acinar cells from wild type mice (C57B6) were harvested and used as described previously. Viability, confirmed by trypan blue exclusion, was >95%. […] These were used in the individual experiments. Data presented is representative of 3 or more experiments. Acinar-adipocyte co-culture: This was done in 12-well companion plates with cell culture inserts (FIG. 14). […] Serum and medium cytokine assays: These were done for TNF-α, MCP-1, IL-6, resistin, and adiponectin using the fluorescence-based capture sandwich immunoassay based on the Luminex FlowMetrix system (Luminex). The Milliplex Mouse Adipokine Panel (7-Plex) 1 kit from Millipore (Billerica, Mass.) was used. Samples were analyzed using the Bio-Plex suspension array system, which included a fluorescent reader and Bio-Plex Manager analytical software (Bio-Rad Laboratories, Hercules, Calif.) at the University of Pittsburgh, Cancer Institute Luminex Core Facility. Visceral fat triglyceride composition: The visceral fat triglyceride composition analysis was done at Kennedy Krieger Institute (Baltimore, Md.). Briefly, total lipids were extracted by the method of Folch. […] The fatty acids were derivatized and analyzed by GCMS as their pentafluorbenzylbromide esters. ATP levels, cytochrome C release, and % LDH leakage were measured as previously described. Apoptosis was measured by active caspase-3 [western blotting, activity assays (Enzcheck, Invitrogen, Carlsbad, Calif.)], TUNEL assays, and Hoechst dye nuclear incorporation (8 mg/ml Hoechst 33342 added for 15 minutes after treatment). […] Results were reported as % of cells with given nuclear changes. These were counter stained with PI (1 μM) to stain necrotic cells (FIG. 7A, B, C) and imaged with a Zeiss Meta dual fluorescence confocal microscope. PI-positive cells were counted as late apoptosis or necrosis. […] Autophagy was studied by western blotting for LC3-I and II. RNA was extracted using Trizol (Invitrogen, Carlsbad, Calif.). mRNA levels of TNF-α, CXCL1, and CXCL2 were measured as described previously using real time-PCR performed on an ABI Prism 7000 Sequence Detection System (Applied Biosystems, Foster City, Calif.) on proprietary Taqman Gene Expression assay reagents (Applied Biosystems). Mitochondrial complex assays and citrate synthase assay were done as described previously.

Data set [3] relates to adipocytes. Description: Isoproterenol-stimulated glycerol release in adipocyte culture. In kind it is cell-based.
The test system of data set [4] is mouse melanoma model. To be noted: Carvalho et al., Int. J. Cancer 2008; cited from earlier work.
In data set [5] the test system is ob/ob mice. Nature of the data set: IL12+18 pancreatitis model. In kind it is in vivo. To be noted: for pancreatic changes: fat necrosis, saponification, peri-fat acinar necrosis, acinar necrosis, hypocalcemia (gross, histologic, biochemical): orlistat 50 mg/kg every 12 hours from 2 hours after induction; for serum SFA levels: orlistat vs IL+Veh group. The source says:
For histologic evaluation, we retrieved all hematoxylin and eosin-stained slides of the pancreas (1-4 in number) of control and acute pancreatitis patients. A trained pathologist with specific interest in gastrointestinal pathology blinded to demographic and clinical data examined the slides. Adipose tissue with large vessels and nerves not bounded by at least 2 pieces of pancreatic parenchyma was regarded as peripancreatic and excluded. The remaining adipose tissue, necrotic fat (bluish cheesy appearance of adipocytes), necrotic parenchyma, and parenchymal necrosis immediately contiguous to areas of fat necrosis (peri-fat acinar necrosis; PFAN) were additionally measured. All of these were measured as a percentage pixel area of each individual field after excluding dead space using Adobe Photoshop PS. The pixel areas of individual parameters for each case were added. The final number was divided by the number of fields to give a percentage area for that parameter in the section. For patients with more than 1 section, the average of the percentage of intrapancreatic fat for all fields from different sections was chosen as representative for the specimen. Von Kossa (to study fat necrosis, saponification), TUNEL (Terminal deoxynucleotidyl transferase dUTP nick end labeling), and oil red O staining were done per standard protocol.
Serum and medium cytokine assays: These were done for TNF-α, MCP-1, IL-6, resistin, and adiponectin using the fluorescence-based capture sandwich immunoassay based on the Luminex FlowMetrix system (Luminex). The Milliplex Mouse Adipokine Panel (7-Plex) 1 kit from Millipore (Billerica, Mass.) was used. Samples were analyzed using the Bio-Plex suspension array system, which included a fluorescent reader and Bio-Plex Manager analytical software (Bio-Rad Laboratories, Hercules, Calif.) at the University of Pittsburgh, Cancer Institute Luminex Core Facility.
Pancreatitis model: IL12+18 model: There were 8-12 animals in each group. Pancreatitis was induced as described previously in 8-10 week old female ob-ob (B6.V-Lepob/J) mice. Briefly, IL-12 (150 ng/dose/mouse) and IL-18 (750 ng/dose/mouse) were simultaneously given intraperitoneally in 2 doses, 24 hours apart. Orlistat at reduced dose than previously published (50 mg/kg) was administered in vehicle (0.1 ml 30% ethanol) as described previously. First injection of orlistat or vehicle was 2 hours after induction of pancreatitis, and these were then repeated every 12 hours.
Non-esterified fatty acid analysis: The sample was extracted with isopropanol-heptane-hydrochloric acid (1M) (40:10:1, v/v) by vortexing for 25-30 min and allowed to incubate at room temperature for 10 minutes. Heptane (4.0 ml) and water (2.0 ml) were added, and the tubes were thoroughly vortexed for 5 minutes. Tubes were centrifuged at 1000 g for 10 minutes at 4° C., and the upper phase (heptane) is transferred into 13×100 mm screw top tubes and dried in a SpeedVac centrifugal concentrator. Non-esterified fatty acids were derivatized with dimethylamine using the Deoxo-Fluor reagent. Non-esterified fatty acid concentrations are measured by gas chromatography separation with flame ionization detection using heptanoic acid as an internal standard. This derivatization method is very mild and efficient and is selective only towards non-esterified fatty acids so that no separation from a total lipid extract is required.

[6] abbreviates: in combination with GTL, at necropsy.
[7] abbreviates: orlistat 50 μM, acini co-cultured with adipocytes.
Where [8] appears, read: orlistat 50 mg/kg every 12 hours.

“Also recorded” adds a separate entry of the source.

As for `CCCCCCCCCCC[C@@H](C[C@@H]1OC(=O)[C@H]1CCCCCC)OC(=O)[C@H](CC(C)C)NC=O` [orlistat], the mortality in data set [1] (dead/total, intraductal GTL alone, GTL+orlistat 75 mg/ml, GTL+cetilistat 25 mg/ml, followed to day 5) is on record as 0/10. For the same compound, in data set [1] (setting [6]), the “lung injury (TUNEL positive nuclei)” value was “absence of TUNEL positive nuclei” and the “renal injury (TUNEL positive nuclei)” value is reported as “nearly completely prevented”. Moreover, the “lung injury (TUNEL positive nuclei)” value in data set [1] (in combination with GTL, at necropsy, listed as Orlistat) is “nearly completely prevented”. Also, the “gross pancreatic appearance: hemorrhages and necrosis” value in data set [1] (intraductal GTL with or without lipase inhibitor) was “prevented the hemorrhages and necrosis up to 5 days”. In addition, the “amylase secretory response to caerulein after co-culture” value in data set [2] (50 μM orlistat, basal, 100 pM and 100 nM caerulein) is listed as “amylase secretory pattern like control acini”. For the same compound, the “resistin levels in the medium” value in data set [2] (50 μM orlistat, co-culture) was “prevents increase in resistin”. Further, in data set [2] (setting [7]), the “acinar cell viability and function” value was “restored acinar cell viability and function to control levels”; the “co-culture induced acinar cell changes (necrosis: propidium iodide positivity, drop in ATP levels, cytochrome c leakage; NEFA and resistin increase in medium)” value is “completely prevented”. Further, the “10 μM isoprotrenol stimulated increase in glycerol levels” value in data set [3] (50 μM orlistat, 1 hour adipocyte culture) is recorded as “not significantly prevented”. The “permeability through cell membranes” value in data set [3] (inferred from glycerol release experiment) is recorded as “limited permeability; also recorded: low permeability”. The “apoptosis, cell growth and lymph node metastasis” value in data set [4] was “promote apoptosis and reduce cell grown and lymph node metastasis”. For the same compound, in data set [5] (compared with IL or IL+Veh groups), the “serum amylase and lipase levels” value was “significantly reduced”. In data set [5] (setting [8]), the “lung injury (apoptotic cells, lung MPO levels)” value is reported as “significantly reduced”; the mortality entry is “significantly reduced”; the “renal end organ damage (BUN, tubular vacuoles, oil red O, TUNEL, mitochondrial swelling, saponification)” value is reported as “normalized”; the “serum UFA levels” value is recorded as “significantly reduced”. Also, in data set [5] (setting [8]), the “serum resistin, TNF-α, MCP-1 and IL-6” value was “normalized”. In data set [5], the “pancreatic changes: fat necrosis, saponification, peri-fat acinar necrosis, acinar necrosis, hypocalcemia (gross, histologic, biochemical)” value was “prevents saponification” and the “serum SFA levels” value is “not significantly reduced”. In data set [5] (listed as Orlistat), the “pancreatic changes: fat necrosis, saponification, peri-fat acinar necrosis, acinar necrosis, hypocalcemia (gross, histologic, biochemical)” value was “significantly blocked” and the “serum SFA levels” value is on record as “did not significantly reduce”. Moreover, the “renal end organ damage (BUN, tubular vacuoles, oil red O, TUNEL, mitochondrial swelling, saponification)” value in data set [5] (orlistat 50 mg/kg every 12 hours, listed as Orlistat) was “reduces these”.
